Legend:
[1] = API particle size distribution (Dv(10), Dv(50), Dv(90), Span); assay type: physicochemical
Source text: In determining and characterizing particle size, e.g., particle size of an API (active pharmaceutical ingredient), the particle size parameters Dv(10), Dv(50) and Dv(90) may be used. Particle size measurements are preferably expressed in terms of Dv(10), Dv(50), and Dv(90), wherein Dv(10) refers to the particle size below which 10% of the volume of material exists; Dv(50) refers to the particle size below which 50% of the volume of material exists; and Dv(90) refers to the particle size below which 90% of the volume of material exists.
Referring to Table 5, experiments were performed with a suspension comprising the active pharmaceutical ingredient (the API), i.e., 17-HPC was the API in these experiments, wherein 17-HPC was present at approximately five percent (5%) w/w in water; and the suspension also comprised the surfactant Tween 80 at approximately 15% in these experiments (processing conditions conducted at Pressure=90 bar). […] Particle size measurements are expressed in terms of Dv(10), Dv(50), and Dv(90), wherein Dv(10) refers to the particle size below which 10% of the volume of material exists; Dv(50) refers to the particle size below which 50% of the volume of material exists; and Dv(90) refers to the particle size below which 90% of the volume of material exists). […]
Exemplary particle size reduction experiments, and characterization of API (i.e., 17-HPC) particle size distribution, using a suspension prepared without a surfactant. Referring to Table 7, particle size reduction of 17-HPC was observed without using any surfactant. Experiments were performed with a suspension comprising the active pharmaceutical ingredient (the API), i.e., 17-HPC in these experiments, in water and without a surfactant. FIG. 16 depicts an exemplary API particle size distribution profile (17-HPC is the active ingredient) after a spray-drying (SD) process. Referring again to FIG. 16, and also to Table 7, an exemplary 17-HPC particle size distribution profile was obtained after approximately 10 to 55 cycles of milling. API particle size was measured after spray drying (SD). Particle size measurements are expressed in terms of Dv(10), Dv(50), and Dv(90), wherein Dv(10) refers to the particle size below which 10% of the volume of material exists; Dv(50) refers to the particle size below which 50% of the volume of material exists; and Dv(90) refers to the particle size below which 90% of the volume of material exists).

[2] = Dynamic vapor sorption (DVS) of 17-HPC powder; assay type: physicochemical; details: FIG. 18; increasing percent relative humidity
Procedure: Dynamic vapor sorption (DVS) is a gravimetric technique that measures how quickly and how much of a solvent is absorbed by a sample, such as a dry powder absorbing water. DVS accomplishes this by varying the vapor concentration surrounding the sample and measuring the change in mass which this produces.
Analysis of 17-HPC dry powder (obtained after particle size reduction and spray drying or SD) was performed. FIG. 18 depicts exemplary results from a dynamic vapor sorption (DVS) analysis of a dry powder obtained after a spray-drying (SD) process. One particular batch (PGC2011-020PD) was selected to be analyzed by DVS. […] There was no substantive change in adsorption or desorption even with conditions of increasing percent relative humidity. Referring to FIG. 19, exemplary results are shown of XRPD analysis of a 17-HPC dry powder obtained after particle size reduction and a spray-drying (SD) process. One particular batch (PGC2011-020PD) was selected to be analyzed by XRPD.

[3] = Table 7, powders after spray drying, bulk material for comparison

With `CCCCCC(=O)O[C@]1(C(C)=O)CC[C@H]2[C@@H]3CCC4=CC(=O)CC[C@]4(C)[C@H]3CC[C@@]21C` [Bulk material] the “Particle Size Dv(10)” value ([1]; Table 5, bulk material) was 6.345 μm, the “Particle Size Dv(50)” value ([1]; Table 5, bulk material) was 56.762 μm and the “Particle Size Dv(90)” value ([1]; Table 5, bulk material) was 307.607 μm. The “Particle Size Span” value ([1]; Table 5, bulk material) was 5.307, the “API particle size after SD (powders) Dv(10)” value [1, 3] was 2.398 μm and the “API particle size after SD (powders) Dv(50)” value [1, 3] was 23.610 μm. The “API particle size after SD (powders) Dv(90)” value [1, 3] was 98.799 μm, the “API particle size after SD (powders) Span” value [1, 3] was 4.083 and the “water uptake in DVS (percent change in weight vs RH %)” value [2] was “neither the obtained powders nor the bulk material gained any measurable quantity of water”.
